Read-outs that look alike come from different tables or passages of the source.
Experiments:
[1] = test system: hiPSCs differentiating into neural rosette-like cells
Description: (§1) Prior to differentiation, the cells were harvested and dissociated into single cells using Gibco™ TrypLE™ Select (ThermoFisher Scientific; Bleiswijk, Netherlands) for 5 min at 37 °C. Cells were seeded in Matrigel™-coated 24-well plates (ThermoFisher Scientific) in mTeSR™1 containing RevitaCell™ Supplement (ThermoFisher Scientific). […] The cells were cultured in this medium until D3. From D3 until the end of the differentiation protocol (D13) (one-step protocol), cells were cultured in N2B27 medium without ROCK inhibitor or LDN193189. In the case of the replating protocol, cells were replated at D7 and grown in the same medium until day 13. At the end of the differentiation, morphology of the cells was assessed using an Operetta CLS (Revvity) instrument. The expected morphology for each of the lineages, to ensure data acceptance and correct differentiations, is further described in Section 2.9 of the methods section. The trilineage differentiation was replicated in 96-well plates (ThermoFisher Scientific and Revvity Phenoplate) using the same differentiation protocols with an adapted number of cells for the seeding. And termination at D14.
(§2) Cells were harvested, and total RNA was isolated using the Maxwell® RSC simply RNA Cells Kit (cat. no.: #AS1390; Promega) on a Maxwell automated purification instrument (Maxwell RSC 48; Promega). […] Each individual primer was paired with its corresponding fluorophore and quencher and adjusted accordingly depending on gene abundance. Primer and probe sequences are described in Supplementary Table S1.
(§3) Data acceptance was based on the appropriate expression of the assessed biomarker genes in the differentiated populations, at appropriate times during differentiation. Failure to observe the expected temporal expression of key, lineage-specific biomarkers, during the cell fate choices associated with each differentiation protocol, would result in the experiment being invalidated.
(§4) To follow morphological changes throughout the hepatocyte and neural differentiation protocol, brightfield images of the cells were acquired after each medium refresh using an iRiS digital cell imaging microscope (Logos Biosystems) or an Operetta CLS (Revvity) instrument. Images were scored based on visual assessment. Cardiac contractability of cardiomyocytes was evaluated visually using an iRiS digital cell imaging microscope (Logos Biosystems).
(§5) Morphologically, cardiomyocytes are expected to group in fiber-like 3D structures that distribute throughout the entire plate. Aside from morphology, an additional criterion for cardiomyocyte differentiation in each experimental setup is for the contracting mature cardiomyocyte cultures exposed to solvent controls, to reach 75%. […] Neural rosettes are recognized by well-defined cell boundaries and multi-layered cultures. Functional/morphological assessment was completed independently from biomarker data analyses. Morphology scores were confirmed by a second person. Failure to observe the anticipated cell morphology/functionality throughout differentiation would result in invalidation of the experiment. Disruption in the morphology of cardiomyocytes is described as a lack of 3D-fibre-like structures in the cultures as well as a clear lack of contractions. Morphologically aberrant hepatocytes are characterized by a lack of polygonal structures with smaller cytoplasm that in the control cultures and the formation of dark cell-dense structures, commonly indicative of clumps of dead cells with big empty spaces between cell colonies.

[2] = test system: hiPSCs differentiating into cardiomyocyte-like cells; conditions: lineage call; footnote b: previously published data; ref Jamalpoor et al., 2022; cited from earlier work
[3] = test system: hiPSCs differentiating into hepatocyte-like cells; conditions: cited from earlier work
[4] = cited from earlier work
[5] = test system: hiPSCs trilineage differentiation (cardiomyocytes, hepatocytes, neural rosette-like cells); assay: ReproTracker trilineage differentiation, overall teratogenicity prediction; conditions: lowest tested concentration with significant decrease of at least one biomarker, trilineage assay; 'N.d. up to x' given as > x
Description: (§6) In ReproTracker, teratogenicity prediction of test compounds is based on a Weight of Evidence (WoE) approach, which considers both the significant decrease in biomarker expression and the morphological/functional changes following exposure to test compounds throughout differentiation assays.
(§7) This threshold, for any given biomarker, is defined as the average minus one time the standard deviation (SD) of the biomarker expression levels in solvent-exposed control cultures throughout the experiment. Reduced expression of the selected biomarkers below the set threshold in a concentration-dependent manner, upon exposure to a minimum of 2 consecutive non-cytotoxic concentrations would be considered significant (noted as +). A decrease in expression below the threshold without a clear dose-response would lead to an equivocal classification (noted as (+)). An increase in expression or a lack of response would be considered negative (noted as -). Disruption of morphology/functionality of the cultures upon compound exposure at the two highest tested concentrations in all biological replicates is considered as a morphological disruption (noted as +). Absence of significant effects results in a negative score (noted as -).
(§8) For each differentiation assay, the expression of two biomarkers and a morphological/functional read-out are considered. In the hepatocyte and cardiomyocyte differentiation, FOXA2 and BMP4 are considered germ-layer-specific biomarkers, while AFP and MYH6 are considered cell-specific biomarkers, respectively. When applying the WoE approach, the cell-specific biomarkers in hepatocyte and cardiomyocyte differentiation are given higher weight compared to the germ-layer specific biomarkers and morphology/functionality. For the neural differentiation, both PAX6 and NESTIN are given equal weight as they are considered cell-specific markers. In this case, both biomarkers are given higher weight than the morphological read-out.
(§9) Every measurement/observation is assigned a score (positive, negative, or equivocal). […] In the ReproTracker assay, a compound is identified as a teratogen if it receives a positive score in at least one of the trilineage differentiation assays (cardiomyocyte, hepatocyte, or neural differentiation). […] If neither biomarker expression levels nor morphology/functionality are affected in any of the differentiation assays, the response is considered negative.

[6] = test system: hiPSCs differentiating into cardiomyocyte-like cells; assay: ReproTracker cardiomyocyte differentiation assay
Description: as §1, §2, §3, §4, §5

[7] = test system: hiPSCs differentiating into hepatocyte-like cells; assay: ReproTracker hepatocyte differentiation assay
Description: as §1, §2, §3, §4, §5

undifferentiated hiPSCs = assay: Concentration-range selection and cytotoxicity assessment (AlamarBlue); conditions: lowest concentration that induced a maximum of 20% cytotoxicity in hiPSCs, 7 days
Description: In short, hiPSCs were exposed to 20 consecutive concentrations of the test compounds using 1 mM or the maximum soluble concentration as the top concentration. Test compounds were added to the medium prior to the refreshes at D0 and D3. Cytotoxicity was estimated at D7; upon completion of the experiments, cells were incubated with resazurin solution (0.01 mg/mL in PBS) and measured absorbance (excitation 530 nm and emission 590 nm). Results were normalized against vehicle controls (0.1% v/v DMSO).
All compounds were tested at five consecutive concentrations in two-fold dilution steps. The top concentration was determined as the lowest concentration that induced a maximum of 20% cytotoxicity in the concentration range finding experiments. Compounds were then diluted 2-fold using serial dilutions.
Data acceptance for dose-range finding experiments was based on the response to positive and negative assay controls, and compound solubility and cytotoxicity. […] Concentrations of compound(s) inducing cytotoxicity and therefore reducing cell survival below 80% were excluded from further testing in differentiation assays.
Thus, to determine cytotoxicity of the test compounds, undifferentiated hiPSCs were exposed to 20 consecutive concentrations at 2-fold dilutions for 7 days. The lowest concentration that induced a maximum of 20% cytotoxicity in the concentration range finding experiment was applied as top concentration for the differentiation experiments.

[8] = test system: hiPSCs trilineage differentiation (cardiomyocytes, hepatocytes, neural rosette-like cells); conditions: human
Description: as §6, §7, §8, §9

[9] = lineage call, footnote b: previously published data, ref Jamalpoor et al., 2022
[10] = read-out: Human therapeutic cmax, Table 1 (R3 I (2021), Schulz et al. (2020) and others)
[11] = lineage call (positive/equivocal/negative)

SMILES | ReproTracker results Neural rosette-like cells [1] | ReproTracker results Cardiomyocyte-like cells [6] | ReproTracker results Hepatocyte-like cells [7] | ReproTracker results Cardiomyocyte-like cells [2] | ReproTracker results Hepatocyte-like cells [3, 9] | Cmax [4, 10] [nM] | ReproTracker results LOAEL [5] | LOAEL compared with respective human therapeutic Cmax [8] | ReproTracker results LOAEL [8] | further results
CC(O)CO (centres unmarked) [1,2-propylene glycol] | Negative |  |  | Negative | Negative | 300 to 3100 | N.d. up to 1000 µM |  |  | 
O=c1[nH]cc(F)c(=O)[nH]1 [5-Fluorouracil] | Negative | Negative | Negative |  |  | 400 to 2300 | N.d. up to 1.3 µM |  |  | top concentration for the differentiation experiments (undifferentiated hiPSCs): 1 µM
COc1cc(C)c(/C=C/C(C)=C/C=C/C(C)=C/C(=O)O)c(C)c1C [Acitretin] |  |  |  |  |  | 30 to 900 | ≤0.2 µM | equal to or below |  | ReproTracker results Cardiomyocyte-like cells [6, 11]: Positive; ReproTracker results Hepatocyte-like cells [7, 11]: Positive; ReproTracker results Neural rosette-like cells [1, 11]: Positive
CC1(C)S[C@@H]2[C@H](NC(=O)[C@H](N)c3ccc(O)cc3)C(=O)N2[C@H]1C(=O)O [Amoxicillin] | Negative |  |  | Negative |  | 1400 to 41000 |  |  |  | 
NS(=O)(=O)c1cc2c(cc1Cl)NCNS2(=O)=O [Hydrochlorothiazide] | Negative |  |  | Positive | Positive | 100 to 200 |  |  |  | 
NC(=O)NO [Hydroxyurea] | Positive | Negative | Positive |  |  | 263000 | ≤2.0 µM | equal to or below |  | 
Cc1ccc(NC(=O)c2ccc(CN3CCN(C)CC3)cc2)cc1Nc1nccc(-c2cccnc2)n1 [Imatinib] | Positive | Negative |  |  |  | 1500 |  | equal to or below | 0.1 µM | ReproTracker results Hepatocyte-like cells [7, 11]: Positive
N#C[C@@H]1CCCN1C(=O)CNC12CC3CC(CC(O)(C3)C1)C2 [Vildagliptin] | Positive | Negative |  |  |  | 600 to 1000 |  |  | 125 µM | ReproTracker results Hepatocyte-like cells [7, 11]: Negative
CC(=O)CC(c1ccccc1)c1c(O)c2ccccc2oc1=O (centres unmarked) [Warfarin] |  |  |  |  |  |  | 62.5 to 250 µM |  |  | ReproTracker results Neural rosette-like cells [1, 11]: Negative; ReproTracker results Hepatocyte-like cells [3]: Positive; Cmax ([4]; human, in vivo): 3200 to 9700 nM

The next lines start with results.

ReproTracker results Neural rosette-like cells [1] | ReproTracker results Cardiomyocyte-like cells [6] | ReproTracker results Hepatocyte-like cells [7] | SMILES | ReproTracker results Cardiomyocyte-like cells [2] | ReproTracker results Hepatocyte-like cells [3, 9] | Cmax [4, 10] [nM] | ReproTracker results LOAEL [5] | LOAEL compared with respective human therapeutic Cmax [8] | ReproTracker results LOAEL [8] | further results
Positive | Negative | Negative | C[C@@H]1C[C@H]2[C@@H]3CCC4=CC(=O)C=C[C@]4(C)[C@@]3(F)[C@@H](O)C[C@]2(C)[C@@]1(O)C(=O)CO [Dexamethasone] |  |  | 100 to 700 |  |  | 1.95 µM | 
Negative |  |  | CCCCCCCCc1ccc(CCC(N)(CO)CO)cc1 [Fingolimod] | Positive | Positive | 3 to 50 |  | higher | ≤0.25 µM | 
Positive | Negative | Negative | OC(Cn1cncn1)(Cn1cncn1)c1ccc(F)cc1F [Fluconazole] |  |  | 6500 to 19600 |  |  | 125 µM | NESTIN gene expression at D13 [1]: decreased; PAX6 gene expression at D7 [1]: decreased
Negative |  |  | Nc1nc2ncc(CNc3ccc(C(=O)N[C@@H](CCC(=O)O)C(=O)O)cc3)nc2c(=O)[nH]1 [Folic acid] |  | Negative | 2 to 10 | N.d. up to 1.95 µM |  |  | 
Positive | Positive | Positive | CC1=C(/C=C/C(C)=C/C=C/C(C)=C\C(=O)O)C(C)(C)CCC1 [Isotretinoin] |  |  | 4 to 8 |  | equal to or below | ≤0.0041 µM | 
Positive |  |  | Cn1cc[nH]c1=S [Methimazole] | Positive |  | 4400 to 20200 |  |  |  | 
Negative | Negative | Negative | CN(Cc1cnc2nc(N)nc(N)c2n1)c1ccc(C(=O)N[C@@H](CCC(=O)O)C(=O)O)cc1 [Methotrexate] |  |  | 20 to 1100 |  | equal to or below | N.d. up to 0.122 µM | top concentration for the differentiation experiments (undifferentiated hiPSCs): 0.1 µM
Negative |  |  | CCN(CC)CCNC(=O)c1cc(Cl)c(N)cc1OC [Metoclopramide] | Negative | Negative | 30 to 500 | N.d. up to 62.5 µM |  |  | 
Positive | Negative | Positive | O=C1NC(=O)C(c2ccccc2)(c2ccccc2)N1 [Phenytoin] |  |  | 39600 to 79300 |  | equal to or below | 31.3 µM | NESTIN gene expression at D13 [1]: without affecting; PAX6 gene expression at D7 [1]: downregulated; morphology of neural rosette-like cells [1]: disrupted
Positive | Negative | Negative | NC(=O)c1ncn([C@@H]2O[C@H](CO)[C@@H](O)[C@H]2O)n1 [Ribavirin] |  |  | 3200 |  | equal to or below | ≤1 µM | 
Negative |  |  | N[C@@H](CC(=O)N1CCn2c(nnc2C(F)(F)F)C1)Cc1cc(F)c(F)cc1F [Sitagliptin] | Negative | Negative | 100 to 900 | N.d. up to 1000 µM |  |  | 
Negative |  |  | Cc1ncc(C[n+]2csc(CCO)c2C)c(N)n1 [Thiamine] | Negative | Negative | 400 | N.d. up to 1000 µM |  |  | 

Source: publication PMC12508576, “Implementing a trilineage differentiation in the ReproTracker assay for improved teratogenicity assessment” (Frontiers in Toxicology, 2025)
